According to patent US20180228720A1, “MELANOGENESIS INHIBITOR” (TAKASAGO INTERNATIONAL CORPORATION, priority 2015, published 2018):

Experiments:
B-16 melanoma cells = assay: Evaluation for melanin production-inhibitory activity against pigment cells; type: cell-based; settings: cultured 4 days with sample, relative to negative control
Protocol: With respect to the components (compounds) of Examples 1 to 3 and Reference Example 1 shown in Table 1, the following test was performed, thereby studying the evaluation for melanin production-inhibitory activity.
In a plastic culture flask (25 cm^2), B-16 melanoma cells in a number of 1×10^5 were seeded and cultured in a 10% serum-containing DMEM medium (manufactured by Nippon Suisan Kaisha, Ltd.) in the presence of 5% carbon dioxide at 37° C. One day after the culture, an evaluation sample diluted with ethanol was added, and the cells were further cultured for 4 days. After completion of the culture, the medium was removed, and the cells were rinsed with PBS (phosphate buffer solution). Thereafter, the cells were detached from the plate by using a medium containing trypsin and EDTA (ethylenediaminetetraacetic acid) and harvested by means of centrifugation. The resulting cells were rinsed three times with 1 mL of 5% trichloroacetic acid controlled at 4° C., rinsed twice with 1 mL of an ethanol/diethyl ether (3/1) solution, and then rinsed once with 1 mL of diethyl ether. After drying, 1 mL of 2N sodium hydroxide was added to dissolve the cells at 60° C. After allowing the solution to stand for cooling, an absorbance at 415 nm was measured, thereby measuring the amount of melanin. Each measured value was calculated as a relative value (%) relative to a value of a negative control in which the evaluation sample was not exposed. The evaluation was performed by three times repetition.

[1] = tested on: melanocyte-containing human three-dimensional cultured epidermal model, LabCyte MELANO-MODEL 24; assay: Skin-whitening activity using melanocyte-containing human three-dimensional cultured epidermal tissue (amount of melanin, number of living cells by MTT); type: cell-based; settings: sample 0.10% (positive control), 2 weeks culture, relative to negative control
Protocol: A melanocyte-containing human three-dimensional cultured epidermal model, LabCyte […]-MODEL 24 (manufactured by Japan Tissue Engineering Co., Ltd.) was cultured in accordance with an instruction manual. That is, a culture cup having a human cultured epidermis charged therein was soaked in 1.5 mL of an improved melanin production-promoting medium, and an evaluation sample was added in the cup and exposed, followed by culture at 37° C. for 2 weeks in the presence of 5% carbon dioxide. The medium and the evaluation sample were exchanged once every two to three days. After completion of the culture, the number of living cells and the amount of melanin were measured according to the MTT assay by a method described in the instruction manual. Each measured value was calculated as a relative value (%) relative to a value of a negative control in which the evaluation sample was not exposed. The evaluation was performed by three times repetition.

melanin production = settings: background art, Patent Documents 2 to 4; cited from earlier work

## OC[C@H]1O[C@@H](Oc2ccc(O)cc2)[C@H](O)[C@@H](O)[C@@H]1O [Arbutin]
B-16 melanoma cells; 3.13 μg/mL
  Melanin inhibition ratio (%): 39%
B-16 melanoma cells; 6.25 μg/mL
  Melanin inhibition ratio (%): 50%
B-16 melanoma cells; 12.5 μg/mL
  Melanin inhibition ratio (%): 71%

## O=c1cc(CO)occ1O [Kojic acid]
[1]; MTT assay
  Number of living cells (%): 92.3 ± 8.8%
[1]
  Amount of melanin (%): 48.4 ± 4.0%

## C[C@@H]1CC[C@H]2C(C)(C)[C@H]3C[C@@]12CC[C@@]3(C)O [cedrol]
Melanin production
  Effect on melanin production (in words): exhibits a melanin production-inhibitory effect

## C=CC(C)(O)CCC=C(C)CCC=C(C)C (stereo not shown) [nerolidol]
Melanin production
  Effect on melanin production (in words): exhibits a melanin production-inhibitory effect
